Like-named read-outs stand apart in the source and are kept apart here.
Key:
[1] = test system: HIV-1 vectors that carry WT IN; experiment: Single-round HIV-1 replication antiviral assay, wild-type IN; format: cell-based; settings: for EC50: 48 h; for Ratio of the antiviral potencies after and before hydrogenation (WT): EC50 of saturated 7 over EC50 of unsaturated 6, WT IN
Description: The bicyclic metal chelating carbamoyl pyridone moiety is common to second-generation tricyclic INSTIs (3, 4, and 5, Figure 1). Analogs of the current study are simplified analogs that lack a third ring. […] The halogen substitution pattern of the benzylamide moiety can affect inhibitory potencies of INSTIs. We determined the antiviral potencies of our compounds in single round HIV-1 replication assays using viral constructs with wild-type IN [31]. Cytotoxicities were determined as previously described. […] In general, the potencies of bicyclic analogs 6 having an unsaturated bond at the C4 position were insensitive to differences in N-methyl substituents. […] Analogs 6g and 6h represent simplified analogs of DTG (3) and CAB (5), respectively, in which the third ring (C-ring) is opened and having doble bond in B-ring, but lacking α-methyl stereochemistry.
Human embryonic kidney cell culture cell line 293 was acquired from the American Type Culture Collection (ATCC). The human osteosarcoma cell line, HOS, was obtained from Dr. Richard Schwartz (Michigan State University, East Lansing, MI, USA) and grown in Dulbecco’s modified Eagle’s medium (Invitrogen, Carlsbad, CA, USA) supplemented with 5% (v/v) fetal bovine serum, 5% newborn calf serum, and penicillin (50 units/mL) plus streptomycin (50 µg/mL; Quality Biological, Gaithersburg, MD, USA). The transfection vector, pNLNgoMIVR-ΔLUC was made from pNLNgoMIVR-ΔEnv.HSA by removing the HSA reporter gene and replacing it with a luciferase reporter gene between the NotI and XhoI restriction sites. To produce the new IN mutant S230N used in this study, the IN open reading frame was removed from pNLNgoMIVR-ΔENV.LUC by digestion with KpnI and SalI, and the resulting fragment was inserted between the KpnI and SalI sites of pBluescript KS+. Using that construct as the wild-type template, we prepared the following HIV-1 IN mutant S230N using the QuikChange II XL site-directed mutagenesis kit (Agilent Technologies, Santa Clara, CA, USA) protocol. The following sense oligonucleotides were used with matching cognate antisense oligonucleotides (not shown) (Integrated DNA Technologies, Coralville, IA, USA) in the mutagenesis: S230N 5′-[…]-3′. The DNA sequence of the IN mutant S230N construct was verified independently by DNA sequence determination. The mutated IN coding sequences from pBluescript KS+ were then subcloned into pNLNgoMIVR-ΔEnv.LUC (between the KpnI and SalI sites) to produce mutant HIV-1 constructs, which were also checked by DNA sequencing. […]. On the day prior to transfection, 293 cells were plated on 100 mm diameter dishes at a density of 1.5 × 10^6 cells per plate. Next, 293 cells were transfected with 16 µg of pNLNgoMIVR^-ΔLUC and 4 µg of pHCMV-g (obtained from Dr. Jane Burns, University of California, San Diego) using the calcium phosphate method. At approximately 6 h after the calcium phosphate precipitate was added, 293 cells were washed twice with phosphate-buffered saline (PBS) and incubated with fresh media for 48 h. The virus-containing supernatants were then harvested, clarified by low-speed centrifugation, filtrated, and diluted for preparation in antiviral infection assays. On the day prior to the screen, HOS cells were seeded in a 96-well luminescence cell culture plate at a density of 4000 cells in 100 µL per well. On the day of the screen for cellular cytotoxicity determination, cells were treated with compounds from a concentration range of 250 µM to 0.05 µM and then incubated at 37 °C for 48 h. On the day of the screen for antiviral activity infection assays, cells were treated with compounds from a concentration range of 5 µM to 0.0001 µM using 11 serial dilutions and then incubated at 37 °C for 3 h. After compound incorporation and activation in the cell, 100 µL of virus-stock (WT or mutant) diluted to achieve a luciferase signal between 0.2 and 1.5 Relative Luciferase Units (RLUs) was added to each well and further incubated at 37 °C for 48 h. […]

[2] = in vitro; format: cell-based; settings: human, HOS cells
Description: Human embryonic kidney cell culture cell line 293 was acquired from the American Type Culture Collection (ATCC). The human osteosarcoma cell line, HOS, was obtained from Dr. Richard Schwartz (Michigan State University, East Lansing, MI, USA) and grown in Dulbecco’s modified Eagle’s medium (Invitrogen, Carlsbad, CA, USA) supplemented with 5% (v/v) fetal bovine serum, 5% newborn calf serum, and penicillin (50 units/mL) plus streptomycin (50 µg/mL; Quality Biological, Gaithersburg, MD, USA). The transfection vector, pNLNgoMIVR-ΔLUC was made from pNLNgoMIVR-ΔEnv.HSA by removing the HSA reporter gene and replacing it with a luciferase reporter gene between the NotI and XhoI restriction sites. To produce the new IN mutant S230N used in this study, the IN open reading frame was removed from pNLNgoMIVR-ΔENV.LUC by digestion with KpnI and SalI, and the resulting fragment was inserted between the KpnI and SalI sites of pBluescript KS+. Using that construct as the wild-type template, we prepared the following HIV-1 IN mutant S230N using the QuikChange II XL site-directed mutagenesis kit (Agilent Technologies, Santa Clara, CA, USA) protocol. The following sense oligonucleotides were used with matching cognate antisense oligonucleotides (not shown) (Integrated DNA Technologies, Coralville, IA, USA) in the mutagenesis: S230N 5′-[…]-3′. The DNA sequence of the IN mutant S230N construct was verified independently by DNA sequence determination. The mutated IN coding sequences from pBluescript KS+ were then subcloned into pNLNgoMIVR-ΔEnv.LUC (between the KpnI and SalI sites) to produce mutant HIV-1 constructs, which were also checked by DNA sequencing. […]. On the day prior to transfection, 293 cells were plated on 100 mm diameter dishes at a density of 1.5 × 10^6 cells per plate. Next, 293 cells were transfected with 16 µg of pNLNgoMIVR^-ΔLUC and 4 µg of pHCMV-g (obtained from Dr. Jane Burns, University of California, San Diego) using the calcium phosphate method. At approximately 6 h after the calcium phosphate precipitate was added, 293 cells were washed twice with phosphate-buffered saline (PBS) and incubated with fresh media for 48 h. The virus-containing supernatants were then harvested, clarified by low-speed centrifugation, filtrated, and diluted for preparation in antiviral infection assays. On the day prior to the screen, HOS cells were seeded in a 96-well luminescence cell culture plate at a density of 4000 cells in 100 µL per well. On the day of the screen for cellular cytotoxicity determination, cells were treated with compounds from a concentration range of 250 µM to 0.05 µM and then incubated at 37 °C for 48 h. On the day of the screen for antiviral activity infection assays, cells were treated with compounds from a concentration range of 5 µM to 0.0001 µM using 11 serial dilutions and then incubated at 37 °C for 3 h. After compound incorporation and activation in the cell, 100 µL of virus-stock (WT or mutant) diluted to achieve a luciferase signal between 0.2 and 1.5 Relative Luciferase Units (RLUs) was added to each well and further incubated at 37 °C for 48 h. Cellular cytotoxicity was measured by using the ATP Lite Luminescence detection system and monitored by adding 50 µL of cell lysis buffer from the Luminescence ATP detection assay to each well followed by mixing at 700 rpm at room temperature for 5 min using a compact thermomixer. After addition of 50 µL of reconstituted Luminescence ATP detection assay reagent to all wells except for the negative control/background wells, the plates were mixed at 700 rpm at room temperature for 5 min using a compact thermomixer, incubated at room temperature for 20 min to allow time for signal development, and finally, cytotoxicity was determined using the microplate reader. Infectivity was measured by using the Steady-lite plus luminescence reporter gene assay system (PerkinElmer, Waltham, MA, USA). […]

[3] = Human immunodeficiency virus 1, HOS, read-out: EC50, antiviral potency, WT IN, VSV-g-pseudotyped HIV-1 luciferase vector with WT IN, HOS cells, 48 h
[4] = 48 h, read-out: CC50, cytotoxic concentration resulting in 50% reduction in the level of ATP

| SMILES | EC50 [1, 3] [nM] | CC50 [2, 4] [nM] | Ratio of the antiviral potencies after and before hydrogenation (WT) [1] | melting point [°C] | CC50 ([2]; running text of b13, read-out: CC50, cytotoxicity) [nM] | EC50 ([1]; read-out: EC50, antiviral potency, WT IN, VSV-g-pseudotyped HIV-1 luciferase vector with WT IN, HOS cells) [nM] |
| --- | --- | --- | --- | --- | --- | --- |
| CC(C)n1ccn2cc(C(=O)NCc3ccc(F)cc3F)c(=O)c(O)c2c1=O [Compound 6b, N-(2,4-Difluorobenzyl)-9-hydroxy-2-isopropyl-1,8-dioxo-1,8-dihydro-2H-pyrido [1,2-a]pyrazine-7-carboxamide] | 3.8 ± 0.6 | > 250000 |  |  |  |  |
| C[C@H]1CO[C@@H]2Cn3cc(C(=O)NCc4ccc(F)cc4F)c(=O)c(O)c3C(=O)N12 [CAB, Cabotegravir, reference compound] | ~2 |  |  |  |  |  |
| CC(C)CC(C)N1CCn2cc(C(=O)NCc3ccc(F)cc3F)c(=O)c(O)c2C1=O (centres unmarked) [Compound 7i, N-(2,4-Difluorobenzyl)-9-hydroxy-2-(4-methylpentan-2-yl)-1,8-dioxo-1,3,4,8-tetrahydro-2H-pyrido [1,2-a]pyrazine-7-carboxamide] | 6 ± 1.2 | > 250000 | 1.4 | 190 to 192 |  |  |
| COCCN1CCn2cc(C(=O)NCc3ccc(F)cc3F)c(=O)c(O)c2C1=O [Compound 7h, N-(2,4-Difluorobenzyl)-9-hydroxy-2-(2-methoxyethyl)-1,8-dioxo-1,3,4,8-tetrahydro-2H-pyrido [1,2-a]pyrazine-7-carboxamide] | 3.9 ± 0.5 |  | 2.1 | 207 to 210 |  |  |
| COCCCn1ccn2cc(C(=O)NCc3ccc(F)cc3F)c(=O)c(O)c2c1=O [Compound 6g, N-(2,4-Difluorobenzyl)-9-hydroxy-2-(3-methoxypropyl)-1,8-dioxo-1,8-dihydro-2H-pyrido [1,2-a]pyrazine-7-carboxamide] | ~2 | > 250000 |  |  |  |  |
| COCCCN1CCn2cc(C(=O)NCc3ccc(F)cc3F)c(=O)c(O)c2C1=O [Compound 7g, N-(2,4-Difluorobenzyl)-9-hydroxy-2-(3-methoxypropyl)-1,8-dioxo-1,3,4,8-tetrahydro-2H-pyrido [1,2-a]pyrazine-7-carboxamide] | 4 ± 0.7 | > 250000 | 2.0 | 250 to 252 |  |  |
| CC(C)N1CCn2cc(C(=O)NCc3ccc(F)cc3F)c(=O)c(O)c2C1=O [Compound 7b, N-(2,4-Difluorobenzyl)-9-hydroxy-2-isopropyl-1,8-dioxo-1,3,4,8-tetrahydro-2H-pyrido [1,2-a]pyrazine-7-carboxamide] | 3 ± 0.1 |  | 0.79 |  | 167000 |  |
| Cn1ccn2cc(C(=O)NCc3ccc(F)cc3F)c(=O)c(O)c2c1=O [Compound 6a, N-(2,4-Difluorobenzyl)-9-hydroxy-2-methyl-1,8-dioxo-1,8-dihydro-2H-pyrido [1,2-a]pyrazine-7-carboxamide] | 2.7 ± 0.2 |  |  | 275 to 280 |  |  |
| COCCn1ccn2cc(C(=O)NCc3ccc(F)cc3F)c(=O)c(O)c2c1=O [Compound 6h, N-(2,4-Difluorobenzyl)-9-hydroxy-2-(2-methoxyethyl)-1,8-dioxo-1,8-dihydro-2H-pyrido [1,2-a]pyrazine-7-carboxamide] | ~2 | > 250000 |  |  |  | 1.9 ± 0.4 |
| COCCCCCCn1ccn2cc(C(=O)NCc3ccc(F)cc3F)c(=O)c(O)c2c1=O [Compound 6f, N-(2,4-Difluorobenzyl)-9-hydroxy-2-(6-methoxyhexyl)-1,8-dioxo-1,8-dihydro-2H-pyrido [1,2-a]pyrazine-7-carboxamide] | 4.8 ± 0.2 | > 250000 |  |  |  |  |
| CN1CCn2cc(C(=O)NCc3ccc(F)cc3F)c(=O)c(O)c2C1=O [Compound 7a, N-(2,4-Difluorobenzyl)-9-hydroxy-2-methyl-1,8-dioxo-1,3,4,8-tetrahydro-2H-pyrido [1,2-a]pyrazine-7-carboxamide] | 4.6 ± 0.7 | > 250000 | 1.7 | 247 to 252 |  |  |
| COCCCCCCN1CCn2cc(C(=O)NCc3ccc(F)cc3F)c(=O)c(O)c2C1=O [Compound 7f, N-(2,4-Difluorobenzyl)-9-hydroxy-2-(6-methoxyhexyl)-1,8-dioxo-1,3,4,8-tetrahydro-2H-pyrido [1,2-a]pyrazine-7-carboxamide] | 4.6 ± 0.4 | > 250000 | 0.96 | 228 to 232 |  |  |
| O=C(NCc1c(F)cc(F)cc1F)c1cn2c(c(O)c1=O)C(=O)N1[C@H]3CC[C@H](C3)O[C@@H]1C2 [BIC, Bictegravir, reference compound] | ~2 |  |  |  |  |  |
